Measurements published in PubChem BioAssay AID248 (DTP/NCI, 2004).
“And” between values parts separate entries of the source, which are not always exact repeats. Equal values may be shown once. Toxic doses and inconclusive results are not listed.

System: L1210 leukemia ip in BDF1 mice, survival T/C
Test: NCI In Vivo Anticancer Drug Screen. Data for tumor model L1210 Leukemia (intraperitoneal) in B6D2F1 (BDF1) mice
Settings: endpoint: mean survival time, higher = longer survival
In short: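 Transplanted-tumor mice were given test agent; controls received vehicle only. Survival readings from the two groups were divided (treated over control).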

[1] = dose: 25.0 mg/kg/injection, schedule: Q01DX001 (ip), vehicle: saline
[2] = dose: 25.0 mg/kg/injection, schedule: Q04DX003 (ip), vehicle: saline
[3] = dose: 100.0 mg/kg/injection, schedule: Q01DX001 (ip), vehicle: saline
[4] = dose: 200.0 mg/kg/injection, schedule: Q01DX001 (ip), vehicle: saline
[5] = dose: 400.0 mg/kg/injection, schedule: Q01DX001 (ip), vehicle: saline
[6] = dose: 50.0 mg/kg/injection, schedule: Q01DX001 (ip), vehicle: saline
[7] = dose: 100.0 mg/kg/injection, schedule: Q01DX001 (ip), vehicle: carboxymethylcellulose (CMC)
[8] = dose: 200.0 mg/kg/injection, schedule: Q01DX001 (ip), vehicle: carboxymethylcellulose (CMC)
[9] = dose: 100.0 mg/kg/injection, schedule: Q04DX003 (ip), vehicle: saline

Cc1cccc2cc3c(ccc4ccccc43)c[n+]12
T/C (dose: 2.0 mg/kg/injection, schedule: Q01DX015 (ip), vehicle: carboxymethylcellulose (CMC)): 101 % of control
T/C (dose: 4.0 mg/kg/injection, schedule: Q01DX015 (ip), vehicle: carboxymethylcellulose (CMC)): 108 % of control
T/C (dose: 5.0 mg/kg/injection, schedule: Q04DX003 (ip), vehicle: Klucel (hydroxypropylcellulose) (HPC)): 106 % of control
T/C (dose: 6.25 mg/kg/injection, schedule: Q01DX009 (ip), vehicle: saline with Tween-80): 98 % of control
T/C (dose: 6.25 mg/kg/injection, schedule: Q04DX003 (ip), vehicle: saline): 93 % of control
T/C (dose: 8.0 mg/kg/injection, schedule: Q01DX015 (ip), vehicle: carboxymethylcellulose (CMC)): 105 % of control
T/C (dose: 10.0 mg/kg/injection, schedule: Q04DX003 (ip), vehicle: Klucel (hydroxypropylcellulose) (HPC)): 103 % of control
T/C (dose: 12.5 mg/kg/injection, schedule: Q01DX001 (ip), vehicle: saline): 98 % of control
T/C (dose: 12.5 mg/kg/injection, schedule: Q01DX009 (ip), vehicle: saline with Tween-80): 115 % of control
T/C (dose: 12.5 mg/kg/injection, schedule: Q04DX003 (ip), vehicle: saline): 97 % of control
T/C (dose: 20.0 mg/kg/injection, schedule: Q04DX003 (ip), vehicle: Klucel (hydroxypropylcellulose) (HPC)): 100 % of control
T/C [1]: 97 % of control
T/C [2]: 97 % of control
T/C (dose: 40.0 mg/kg/injection, schedule: Q04DX003 (ip), vehicle: Klucel (hydroxypropylcellulose) (HPC)): 97 % of control
T/C (dose: 80.0 mg/kg/injection, schedule: Q04DX003 (ip), vehicle: Klucel (hydroxypropylcellulose) (HPC)): 100 % of control

OCCCN=Cc1cc(Cl)cc(Cl)c1O
T/C [3]: 98 % of control
T/C [4]: 95 % of control
T/C [5]: 93 % of control

Nc1ncn(C(=S)Nc2ccccc2)n1
T/C [6]: 102 % of control
T/C [3]: 98 % of control
T/C [4]: 98 % of control
T/C [5]: 98 % of control

CNc1cc(Cl)c(Cl)cc1[N+](=O)[O-]
T/C (dose: 100.0 mg/kg/injection, schedule: Q01DX009 (ip), vehicle: saline sonified): 98 % of control
T/C (dose: 100.0 mg/kg/injection, schedule: Q04DX003 (ip), vehicle: Klucel (hydroxypropylcellulose) (HPC)): 95 % of control
T/C (dose: 200.0 mg/kg/injection, schedule: Q01DX009 (ip), vehicle: saline sonified): 98 % of control
T/C (dose: 200.0 mg/kg/injection, schedule: Q04DX003 (ip), vehicle: Klucel (hydroxypropylcellulose) (HPC)): 98 % of control
T/C (dose: 400.0 mg/kg/injection, schedule: Q01DX009 (ip), vehicle: saline sonified): 98 % of control
T/C (dose: 400.0 mg/kg/injection, schedule: Q04DX003 (ip), vehicle: Klucel (hydroxypropylcellulose) (HPC)): 104 % of control

Cc1c(C)c(NC(=O)N(CCCl)N=O)c(C)c(C)c1NC(=O)N(CCCl)N=O
T/C (dose: 15.5 mg/kg/injection, schedule: Q01DX001 (ip), vehicle: other): 120 % of control
T/C (dose: 62.0 mg/kg/injection, schedule: Q01DX001 (ip), vehicle: other): 152 % of control
T/C (dose: 125.0 mg/kg/injection, schedule: Q01DX001 (ip), vehicle: other): 159 % of control and 160 % of control and 207 % of control
T/C (dose: 250.0 mg/kg/injection, schedule: Q01DX001 (ip), vehicle: other): 203 % of control and 211 % of control and 252 % of control
T/C (dose: 375.0 mg/kg/injection, schedule: Q01DX001 (ip), vehicle: other): 237 % of control
T/C (dose: 500.0 mg/kg/injection, schedule: Q01DX001 (ip), vehicle: other): 223 % of control and 283 % of control
T/C (dose: 501.0 mg/kg/injection, schedule: Q01DX001 (ip), vehicle: other): 115 % of control
T/C (dose: 750.0 mg/kg/injection, schedule: Q01DX001 (ip), vehicle: other): 151 % of control and 238 % of control
T/C (dose: 1000.0 mg/kg/injection, schedule: Q01DX001 (ip), vehicle: other): 190 % of control

O=C(Nc1cccc(C2=NCC(O)CN2)c1)c1ccc(C(=O)Nc2cccc(C3=NCC(O)CN3)c2)c(Cl)c1 (stereo not given)
T/C (dose: 6.25 mg/kg/injection, schedule: Q01DX Z (ip), vehicle: water): 95 % of control

COc1ccc(-c2cc(C(=O)N/N=C/c3ccc([N+](=O)[O-])cc3)c3ccc(C)cc3n2)cc1OC
T/C (dose: 200.0 mg/kg/injection, schedule: Q04DX003 (ip), vehicle: saline with Tween-80): 86 % of control
T/C (dose: 400.0 mg/kg/injection, schedule: Q04DX003 (ip), vehicle: saline with Tween-80): 94 % of control

Cc1cccc([P+](Cc2ccccc2)(c2cccc(C)c2)c2cccc(C)c2)c1
T/C (dose: 15.0 mg/kg/injection, schedule: Q01DX001 (ip), vehicle: carboxymethylcellulose (CMC)): 90 % of control

CC(C)CNC(=S)Nc1ccccc1
T/C (dose: 75.0 mg/kg/injection, schedule: Q01DX001 (ip), vehicle: other): 98 % of control
T/C (dose: 150.0 mg/kg/injection, schedule: Q01DX001 (ip), vehicle: other): 98 % of control
T/C (dose: 300.0 mg/kg/injection, schedule: Q01DX001 (ip), vehicle: other): 102 % of control

Clc1ncnc2scnc12
T/C (dose: 50.0 mg/kg/injection, schedule: Q01DX001 (ip), vehicle: carboxymethylcellulose (CMC)): 102 % of control
T/C [7]: 91 % of control
T/C [8]: 98 % of control

CCOC(=O)N/N=C/c1cccs1
T/C [3]: 98 % of control
T/C [4]: 96 % of control
T/C [5]: 98 % of control

Cc1ccc(C)c(CCC(C)CCCC(C)C)c1 (stereo not given)
T/C [3]: 97 % of control
T/C [4]: 104 % of control

O=C(O)c1ccc(Br)cc1F
T/C [7]: 89 % of control
T/C (dose: 100.0 mg/kg/injection, schedule: Q01DX009 (ip), vehicle: carboxymethylcellulose (CMC)): 109 % of control and 92 % of control
T/C (dose: 100.0 mg/kg/injection, schedule: Q04DX002 (ip), vehicle: Klucel (hydroxypropylcellulose) (HPC)): 97 % of control
T/C (dose: 100.0 mg/kg/injection, schedule: Q04DX002 (ip), vehicle: carboxymethylcellulose (CMC)): 104 % of control and 107 % of control
T/C (dose: 100.0 mg/kg/injection, schedule: Q04DX003 (ip), vehicle: carboxymethylcellulose (CMC)): 97 % of control
T/C [8]: 99 % of control
T/C (dose: 200.0 mg/kg/injection, schedule: Q01DX009 (ip), vehicle: carboxymethylcellulose (CMC)): 116 % of control and 89 % of control
T/C (dose: 200.0 mg/kg/injection, schedule: Q04DX002 (ip), vehicle: Klucel (hydroxypropylcellulose) (HPC)): 97 % of control
T/C (dose: 200.0 mg/kg/injection, schedule: Q04DX002 (ip), vehicle: carboxymethylcellulose (CMC)): 102 % of control and 91 % of control
T/C (dose: 200.0 mg/kg/injection, schedule: Q04DX003 (ip), vehicle: carboxymethylcellulose (CMC)): 99 % of control
T/C (dose: 400.0 mg/kg/injection, schedule: Q01DX001 (ip), vehicle: carboxymethylcellulose (CMC)): 89 % of control
T/C (dose: 400.0 mg/kg/injection, schedule: Q01DX009 (ip), vehicle: carboxymethylcellulose (CMC)): 95 % of control and 92 % of control
T/C (dose: 400.0 mg/kg/injection, schedule: Q04DX002 (ip), vehicle: Klucel (hydroxypropylcellulose) (HPC)): 97 % of control
T/C (dose: 400.0 mg/kg/injection, schedule: Q04DX002 (ip), vehicle: carboxymethylcellulose (CMC)): 99 % of control and 100 % of control
T/C (dose: 400.0 mg/kg/injection, schedule: Q04DX003 (ip), vehicle: carboxymethylcellulose (CMC)): 105 % of control

CN(C)CN(C)C
T/C [1]: 98 % of control
T/C (dose: 25.0 mg/kg/injection, schedule: Q01DX009 (ip), vehicle: saline): 89 % of control
T/C [2]: 100 % of control
T/C [6]: 102 % of control
T/C (dose: 50.0 mg/kg/injection, schedule: Q01DX009 (ip), vehicle: saline): 100 % of control
T/C (dose: 50.0 mg/kg/injection, schedule: Q04DX003 (ip), vehicle: saline): 100 % of control
T/C [9]: 102 % of control

CC(=O)[O][Sb]([O]C(C)=O)([c]1ccccc1)([c]1ccccc1)[c]1ccccc1
T/C (dose: 100.0 mg/kg/injection, schedule: Q04DX002 (ip), vehicle: saline with Tween-80): 96 % of control
T/C (dose: 200.0 mg/kg/injection, schedule: Q04DX002 (ip), vehicle: saline with Tween-80): 96 % of control
T/C (dose: 400.0 mg/kg/injection, schedule: Q04DX002 (ip), vehicle: saline with Tween-80): 96 % of control

O=[N+]([O-])c1cccc(S(=O)(=O)O)c1.[Fe]
T/C [9]: 95 % of control
T/C (dose: 200.0 mg/kg/injection, schedule: Q04DX003 (ip), vehicle: saline): 89 % of control

COc1ccc(NC(=O)Nc2ccc(C)c(Cl)c2)cc1
T/C (dose: 100.0 mg/kg/injection, schedule: Q01DX009 (sc), vehicle: olive oil, sesame oil, peanut oil): 96 % of control
T/C (dose: 100.0 mg/kg/injection, schedule: Q04DX003 (sc), vehicle: olive oil, sesame oil, peanut oil): 99 % of control
T/C (dose: 200.0 mg/kg/injection, schedule: Q01DX009 (sc), vehicle: olive oil, sesame oil, peanut oil): 107 % of control
T/C (dose: 200.0 mg/kg/injection, schedule: Q04DX003 (sc), vehicle: olive oil, sesame oil, peanut oil): 93 % of control
T/C (dose: 400.0 mg/kg/injection, schedule: Q01DX009 (sc), vehicle: olive oil, sesame oil, peanut oil): 94 % of control
T/C (dose: 400.0 mg/kg/injection, schedule: Q04DX003 (sc), vehicle: olive oil, sesame oil, peanut oil): 97 % of control
